This assay deals with MCF-7 (breast). The assay is described as follows: in vitro cytotoxicity assay (Cell-Titer-Glo), MCF-7. The format is cell-based. The following applies: Homo sapiens. How it is done:
(§1) To evaluate cell killing of cancer cell lines, an in vitro cytotoxicity assay was performed. The tumor cell lines used were purchased from the American Type Culture Collection, and are identified as follows: Panc-1 (pancreas), MiaPaCa-2 (pancreas), MCF-7 (breast), HT-29 (colon), U2-OS (osteosarcoma), OVCAR-3 (ovary), HepG2 (hepatocellular carcinoma) and TT (medullary thyroid). The assay utilized the Cell-Titer-Glo Non-Radioactive Cell Proliferation Assay (Promega Corp., Madison, Wis.). First the cells were cultured in RPMI 1640 medium (Cat# 21870-076, Invitrogen Corporation) supplemented with 300 mg/L L-glutamine, 100 units/ml penicillin, 100 μg/ml streptomycin and 10% fetal bovine serum. All the cell lines were incubated in a humidified incubator at 37° C. with 5% CO2 atmosphere.
Cells were plated at a density of 2000 to 10000 cells per well, depending on their growth rate, in 0.09 mL medium on day 0 in 96-well Microlite TCT microtiter plates (7418, Thermo Labsystems, Franklin, Mass.). On day 1, 10 μL of serial dilutions of the individual compounds were added to the plates in replicates of 3. After incubation for 4 days at 37° C. in a humidified incubator, the cells were lysed in the Cell-Titer-Glo reagent, which also contains luciferase enzyme. The luciferase reaction utilizes ATP released from lysed cells to produce light, the intensity of which is linearly related to the amount of ATP. Thus, the amount of light produced is a reflection of the number of cells remaining in the well after drug treatment. This luminescence was measured using a Luminoskan luminometer (Thermo Electron Corp., Vantaa, Finland) Data were expressed as the percentage of survival of control cells calculated from the luminescence corrected for background. The surviving percent of cells was determined by dividing the mean luminescence values of the treated wells by the mean luminescence values of the control and multiplying by 100.
as §1, with “Briefly,” for “To evaluate cell killing of cancer cell lines, an in vitro cytotoxicity assay was performed. The”, “thyroid), PC-3 (prostate) and A549 (lung).” for “thyroid).”
as §1, with “carcinoma), PC-3 (prostate),” for “carcinoma)”, “A549 (lung).” for “TT (medullary thyroid).”
Cells were plated at a density of 2000 to 10000 cells per well, depending on their growth rate, in 0.09 mL medium on day 0 in 96-well Microlite TCT microtiter plates (#7418, Thermo Labsystems, Franklin, Mass.). On day 1, 10 μL of serial dilutions of the individual compounds were added to the plates in replicates of 3. After incubation for 4 days at 37° C. in a humidified incubator, the cells were lysed in the Cell-Titer-Glo reagent, which also contains luciferase enzyme. […]

Where [1] appears, read: MCF7, 96 h, Example 20, 4 days, read-out: Cell-based IC50 values MCF-7.
Setting [2] is: MCF7, 96 h, Table 9, 4 days, read-out: IC50 MCF-7.

SMILES strings stand for the structures. Read-outs that look alike come from different tables or passages of the source.

The IC50 is the concentration that gives 50% inhibition.

`CC(=O)NS(=O)(=O)c1ccc(NC(=S)N2CCN(c3ncnc4[nH]c5cc(C(F)(F)F)c(Cl)cc5c34)CC2)cc1` [Compound 1-1, 4-(6-Chloro-7-trifluoromethyl-9H-pyrimido[4,5-b]indol-4-yl)-piperazine-1-carbothioic acid (4-acetylsulfamoyl-phenyl)-amide]: the IC50 is 22.5 µM (MCF7, 96 h, Example 18, 4 days, read-out: calculated IC50 MCF-7); 14.6 µM under setting [1]; 22.5 µM (MCF7, Table 10, 96 hours, read-out: IC50 MCF-7 (inhibit cell growth to 50% of untreated)).

`COc1cc2[nH]c3ncnc(N4CCN(C(=S)Nc5ccc(S(=O)(=O)NC(C)=O)cc5)CC4)c3c2cc1OC` [Compound 1-2, 4-(6,7-Dimethoxy-9H-pyrimido[4,5-b]indol-4-yl)-piperazine-1-carbothioic acid (4-acetylsulfamoyl-phenyl)-amide]: under setting [1], the IC50 was determined as 126 µM.

On to `CC(=O)NS(=O)(=O)c1ccc(NC(=S)N2CCN(c3ncnc4[nH]c5ccc(Cl)cc5c34)CC2)cc1` [Compound 1-3, 4-(6-chloro-9H-pyrimido[4,5-b]indol-4-yl)-piperazine-1-carbothioic acid (4-acetylsulfamoyl-phenyl)-amide], for which the IC50 under setting [1] was found to be 209 µM.

As for `CC(=O)NS(=O)(=O)c1ccc(NC(=S)N2CCN(c3ncnc4[nH]c5cc(F)ccc5c34)CC2)cc1` [Compound 1-4], the concentration for half-maximal inhibition (IC50) under setting [1] was found to be 249 µM.

`COc1cc2c(cc1O)[nH]c1ncnc(N3CCN(C(=S)Nc4ccc(S(=O)(=O)NC(C)=O)cc4)CC3)c12` [Compound 1-8]: the IC50 under setting [1] was determined as 83.1 µM.

In the case of `COc1cc2[nH]c3ncnc(N4CCN(C(=S)Nc5ccc(S(=O)(=O)N6CCOCC6)cc5)CC4)c3c2cc1OC` [Compound 1-26], under setting [1], the IC50 turned out to be 14.7 µM.

As to `COc1cc2[nH]c3ncnc(N4CCN(C(=S)Nc5ccc(NC(=O)C6CC6)cc5)CC4)c3c2cc1OC` [Compound 1-34], under setting [1], the IC50 amounted to 76.9 µM.

As to `COc1cc2[nH]c3ncnc(N4CCN(C(=S)Nc5ccc(NC(C)=O)cc5)CC4)c3c2cc1OC` [Compound 1-42], the IC50 under setting [1] was 4.62 µM.

On to `COc1cc2[nH]c3ncnc(N4CCN(C(=S)Nc5ccc(S(N)(=O)=O)cc5)CC4)c3c2cc1OC` [Compound 1-107], for which, under setting [1], the IC50 is greater than 300 µM.

Consider `COc1cc2[nH]c3ncnc(N4CCN(C(=S)Nc5ccc(S(C)(=O)=O)cc5)CC4)c3c2cc1OC` [Compound 1-115], for which the IC50 under setting [1] is 87.8 µM.

Regarding `COc1cc2[nH]c3ncnc(N4CCN(C(=S)Nc5ccc(S(=O)(=O)Nc6ccc(F)cc6)cc5)CC4)c3c2cc1OC` [Compound 2-3, 4-(6,7-dimethoxy-9H-pyrimido[4,5-b]indol-4-yl)-N-(4-(N-(4-fluorophenyl)sulfamoyl)phenyl)piperazine-1-carbothioamide], the IC50 under setting [2] stood at 8.43 µM.

`COc1ccc2c(c1)[nH]c1ncnc(N3CCN(C(=S)Nc4ccc(S(=O)(=O)Nc5ccc(F)cc5)cc4)CC3)c12` [Compound 2-5, 4-(7-methoxy-9H-pyrimido[4,5-b]indol-4-yl)-N-(4-(N-(4-fluorophenyl)sulfamoyl)phenyl)piperazine-1-carbothioamide]: the IC50 under setting [2] was 8.11 µM.

Regarding `Cc1ccc(NS(=O)(=O)c2ccc(NC(=S)N3CCN(c4ncnc5[nH]c6cc(Cl)c(N7CCOCC7)cc6c45)CC3)cc2)cc1` [Compound 2-9, 4-(7-chloro-6-morpholino-9H-pyrimido[4,5-b]indol-4-yl)-N-(4-(N-tolylsulfamoyl)phenyl)piperazine-1-carbothioamide], under setting [2], the IC50 is 8.21 µM.

The record behind these values is patent US20080207632A1, “PROTEIN KINASE INHIBITORS” (SUPERGEN, INC., priority 2006, published 2008).
